# Experimental data reported in US20110312015A1, “RAPID THROMBOCHEK TEST KIT BASED ON WHOLE BLOOD SCREENING TEST TO DETECT PLATELET HYPERAGGREGATION AT A TEMPERATURE OF 37ºC IN THE CLINICAL LABORATORY” (priority 2008, published 2011).
# Read-outs that look alike come from different tables or passages of the source.
# Legend:
# [1] = system: hyperactive platelets; assay: Assessment of efficacy of antiplatelet treatment in patients by Rapid Thrombochek test and microscopic method; type: in vivo, human; conditions: twenty myocardial infarction patients on daily aspirin for minimum 3 weeks; both methods
# Procedure: Tests were carried out on healthy adults (male and female) and the normals were established. The test was carried out on patients of diabetes mellitus and known cases of myocardial infarction. […] All the smears were prepared by taking a drop of blood on slide and making a smear by cover slide method of smear preparation. All the smears were fixed in alcohol after drying and stained with […] stain and examined under oil immersion lense. Platelets free and in aggregates were counted and percentage of aggregation was worked out. TWENTY PATIENTS OF MYOCARDIAL INFARCTION ON DAILY ASPIRIN FOR MINIMUM PERIOD OF 3 WEEKS WERE TESTED BY […] WELL AS BY MICROSCOPIC METHOD FOR ASSESSMENT OF EFFICACY OF ANTIPLATELET TREATMENT.
# [2] = system: platelets in whole blood; conditions: 0.5 uM Epinephrine, 180 seconds
# Procedure: Collecting a blood sample from an individual in EDTA anticoagulant vacutainer first and then taking blood in trisodium citrate-anticoagulant vacutainer with the same venipuncture and mixing both the samples with the respective anticoagulants at least 15 to 20 times by inversion and allowing EDTA sample to stand at room temperature for a minimum of 20 minutes and then within two hours of collection, the EDTA sample is analysed on an automated hematology analyser to determine the platelet count and appropriate aliquote of citrate sample is taken in a plastic cuvette with a magnetic bar and stirred for 3 minutes at 37° C. and a weak agonist of platelet aggregation in low concentration is added to stirred citrate sample and further stirred for another three minutes at 37° C. At the end of these last three minutes the stirred citrate agonist treated sample is analysed on an hematology analyser for platelet count. Difference between EDTA platelet count and agonist treated stirred citrate platelet count, percentage of platelet aggregation is calculated by dividing the difference by EDTA platelet count and multiplying it by 100.
# All samples were collected in the morning when the subjects were fasting. Blood was collected in Plain vaccutainer then EDTA vacutainer by a clean venipuncture using a 20 G needle and then in the 3.8% Na citrate (1:10 dil) vacutainer. Both these anticoagulated blood samples were thoroughly mixed with respective anticoagulants by inversion (15 to 20 times) and the EDTA sample was made to stand at room temperature for 20 minutes after collection and only then analysed for platelet count measurements on the automated hematology analyser. Both samples were analysed within two hours of collection. […]
# [3] = system: platelets; assay: Platelet aggregation in blood anticoagulated with D-Phe-Pro-Arg chloromethyl ketone dihydrochloride; type: cell-based; conditions: aggregation caused by addition of agonist
# Excerpt: Heparin, Na Citrate 3.2% can also be used instead of citrate 3.8% as anticoagulant to study platelet hyperaggregation.
molecule,measurement,setting,value
"CC(=O)Oc1ccccc1C(=O)O [ASPIRIN, Aspirin]",Efficacy of antiplatelet treatment (hyperactive platelets above normal range),[1],LESS THAN EFFECTIVE IN FOUR OF THEM
"CNC[C@H](O)c1ccc(O)c(O)c1 [Epinephrine, Epinephrine bitartrate]","Platelet Aggregation % at 180 sec. at 37° C., mean (SD)",[2]; Diabetes patients,35 (12) %
same,"Platelet Aggregation % at 180 sec. at 37° C., mean (SD)",[2]; MI (myocardial infarction) patients,29 (11) %
same,"Platelet Aggregation % at 180 sec. at 37° C., mean (SD)",[2]; Normal group (healthy adults),14.5 (7) %
D-Phe-Pro-Arg chloromethyl ketone dihydrochloride,Effect on agonist-induced platelet aggregation when used as anticoagulant,[3],substantial disaggregation of platelet aggregation
